This is an account of results in PubChem BioAssay AID1350 (Sanford-Burnham Center for Chemical Genomics, 2008).

Activity calls are given as the source filed them.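 The calls were made as follows: active = wells where survival under tumor necrosis factor attack stays above 50% of untreated control at 25 µM; inactive = the rest.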

The test relates to CSM14.1 TNF/CHX-induced death, ATPlite luminescence, 24 h. The test is described as follows: protection against TNF-triggered CSM14.1 death, SAR follow-up, selectivity assay for ER stress death inhibitor project, cell-based, undifferentiated CSM14.1, ATP luminescence (AID 1350). The note with it: at 25 µM; hits give high values.
With `CC1(C)CC(=O)C2=C(C1)Nc1ccccc1NC2c1ccc(-c2ccccc2)cc1` (stereo unspecified), the survival is 46% (inactive).
Turning to `CCOc1cc(C2Nc3ccccc3NC3=C2C(=O)CC(c2ccc(OC)cc2)C3)cc(Cl)c1O` (stereo unspecified), the survival is 33% (inactive).
Next, `O=C1CC(c2ccccc2)CC2=C1C(c1c(F)cccc1Cl)Nc1ccccc1N2` (stereo unspecified): 32% (inactive).
Next, `COc1ccc(C2CC(=O)C3=C(C2)Nc2ccccc2NC3c2cccc(Br)c2)cc1OC` (stereo unspecified): 38% (inactive); `COc1ccc(C2CC(=O)C3=C(C2)Nc2ccccc2NC3c2cccc(C(F)(F)F)c2)cc1OC` (stereo unspecified): 37% (inactive); `COc1ccc(C2CC(=O)C3=C(C2)Nc2ccccc2NC3c2cc(C)ccc2C)cc1` (stereo unspecified): 39% (inactive).
The same measure for `CCOc1cccc(C2Nc3ccccc3NC3=C2C(=O)CC(c2ccc(OC)cc2)C3)c1` (stereo unspecified): 40% (inactive); for `COc1ccc(C2CC(=O)C3=C(C2)Nc2ccccc2NC3c2cccc(Oc3ccccc3)c2)cc1OC` (stereo unspecified): 39% (inactive).
Consider `CSc1ccc(C2Nc3ccccc3NC3=C2C(=O)CC(c2ccccc2)C3)cc1` (stereo unspecified), for which the survival was 43% (inactive).
Next, `COc1ccc(C2CC(=O)C3=C(C2)Nc2ccccc2NC3c2ccccc2C(F)(F)F)cc1OC` (stereo unspecified): 37% (inactive); `CCCOc1ccc(C2Nc3ccccc3NC3=C2C(=O)CC(c2ccc(OC)c(OC)c2)C3)cc1` (stereo unspecified): 45% (inactive).
